Entries after “also recorded” stand apart in the source; their conditions may differ. Read-outs that look alike come from different tables or passages of the source.
What was measured:
[1] = target: T1, hTRPML1ΔNC-YFP, a plasma membrane variant of wild-type TRPML1 (Homo sapiens, UniProt Q9GZU1); parameters: method as in PMID 33859333; conditions: previous work, cited from earlier work; for IC50: hTRPML1ΔNC-YFP, read-out: IC50 TRPML1 inhibition
[2] = parameters: method as in PMID 33859333; conditions: compared to EDME; cited from earlier work
[3] = target: T1, hTRPML1ΔNC-YFP, a plasma membrane variant of wild-type TRPML1; experiment: TRPML1 inhibition, fluorimetric Ca2+ influx assay (Fluo-4/AM) on HEK293 cells stably expressing plasma membrane-targeted TRPML1; type: cell-based; conditions: for TRPML1-inhibitory activity (in words) / IC50: hTRPML1ΔNC-YFP; for TRPML1-inhibitory activity (in words): Ca2+ influx assay; for IC50: HEK293 cells, Ca2+ influx, Fluo-4/AM
From the text: The two target compounds, pyridine analog 1 and pyrimidine analog 2, as well as the inadvertently obtained pyridone analog 6 were submitted to our previously described test for inhibition of TRPML1 on hTRPML1ΔNC-YFP, a plasma membrane variant of wild-type TRPML1 by means of a fluorimetric Ca^2+ influx assay.
hTRPML1ΔNC-YFP, a plasma membrane variant of wild-type TRPML1, was obtained from HEK293 cells stably expressing plasma membrane-targeted TRPML1 by trypsination and after resuspending in HEPES buffered solution. IC50 values for TRPML1 inhibition were determined on a fluorescence imaging plate reader built into a robotic liquid handling station (Freedom Evo 150, Tecan, Mannedorf, Switzerland) using the calcium dye Fluo-4/AM (Invitrogen, Thermo Fisher Scientific, Waltham, MA, USA) according to the test procedure described in our previous work in the section Compound screening and generation of concentration–response curves.

T1 sequence (Q9GZU1 whole entry, stated change not applied): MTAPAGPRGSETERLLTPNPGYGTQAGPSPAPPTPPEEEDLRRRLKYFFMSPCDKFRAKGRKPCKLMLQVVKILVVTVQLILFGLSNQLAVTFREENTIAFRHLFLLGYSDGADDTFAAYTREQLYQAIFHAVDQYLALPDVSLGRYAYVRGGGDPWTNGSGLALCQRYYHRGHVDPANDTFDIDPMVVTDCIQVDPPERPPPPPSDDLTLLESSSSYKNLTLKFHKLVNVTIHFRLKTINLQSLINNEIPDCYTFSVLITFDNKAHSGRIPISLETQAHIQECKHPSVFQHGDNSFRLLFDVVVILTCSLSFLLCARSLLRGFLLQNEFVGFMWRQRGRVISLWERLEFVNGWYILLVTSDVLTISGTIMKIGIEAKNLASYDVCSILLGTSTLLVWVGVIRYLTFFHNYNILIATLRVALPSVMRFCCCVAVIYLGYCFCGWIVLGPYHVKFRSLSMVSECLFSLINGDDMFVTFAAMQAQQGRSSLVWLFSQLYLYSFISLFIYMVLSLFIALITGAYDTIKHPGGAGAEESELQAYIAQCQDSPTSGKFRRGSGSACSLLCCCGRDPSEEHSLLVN

SMILES | IC50 [1] | IC50 [3] | also measured
C=Cc1ccc2c(c1)CC[C@@H]1[C@@H]2CC[C@]2(C)[C@@H](O)CC[C@@H]12 [PRU-10] | 410 nM |  | estrogenic activity (in words) [2]: reduced estrogenic activity
C[C@]12CC[C@@H]3c4ccc(=O)[nH]c4CC[C@H]3[C@@H]1CC[C@@H]2O [Compound 6, (4bS,6aS,7S,9aS,9bR)-7-hydroxy-6a-methyl-1,4b,5,6,6a,7,8,9,9a,9b,10,11-dodecahydro-2H-indeno[5,4-f]quinolin-2-one] |  | 40000 nM | TRPML1-inhibitory activity (in words) [3]: virtually inactive; TRPML1-inhibitory activity (in words) ([3]; listed as pyridone analog): completely inactive
C[C@]12CC[C@@H]3c4ccc(O)cc4CC[C@H]3[C@@H]1CC[C@@H]2O [17β-estradiol] | 5300 nM |  | 
COc1ccc2c(c1)CC[C@@H]1[C@@H]2CC[C@]2(C)[C@@H](O)CC[C@@H]12 [EDME, estradiol methyl ether] | 600 nM | 600 nM | 
COc1ccc2c(n1)CC[C@@H]1[C@@H]2CC[C@]2(C)[C@@H](O)CC[C@@H]12 [Compound 1, (4bS,6aS,7S,9aS,9bR)-2-Methoxy-6a-methyl-4b,6,6a,7,8,9,9a,9b,10,11-decahydro-5H-indeno[5,4-f]quinolin-7-ol] |  | 1000 nM | TRPML1-inhibitory activity, factor less potent than EDME ([3]; compared to EDME): < 2; melting point: 157 °C
COc1ncc2c(n1)CC[C@@H]1[C@@H]2CC[C@]2(C)[C@@H](O)CC[C@@H]12 [Compound 2, (4bS,6aS,7S,9aS,9bR)-2-Methoxy-6a-methyl-4b,6,6a,7,8,9,9a,9b,10,11-decahydro-5H-indeno[5,4-f]quinazolin-7-ol] |  | 8800 nM | TRPML1-inhibitory activity (in words) [3]: only a very weak inhibitor; also recorded: significantly lost inhibitory potency
CC(=O)c1ccc2c(c1)CC[C@@H]1[C@@H]2CC[C@]2(C)[C@@H](O)CC[C@@H]12 [PRU-12] | 280 nM |  | estrogenic activity (in words) [2]: reduced estrogenic activity
C#C[C@]1(O)CC[C@H]2[C@@H]3CCc4cc(OC)ccc4[C@H]3CC[C@@]21C [mestranol] |  |  | TRPML1 inhibition (in words) [1]: considerable activity

Source: article PMC10647736, “Aza Analogs of the TRPML1 Inhibitor Estradiol Methyl Ether (EDME)” (Molecules, 2023)
